Laboratory results as given in patent US10905123B2, “Herbicidal compounds” (Syngenta Participations AG, priority 2015, dated 2021).

Key:
Format in all cases: in vivo
Conditions in all cases: evaluated after 13 days
[1] = test system: Alopecurus myosuroides (ALOMY); test: B1 pre-emergence herbicidal activity
Protocol: (§1) Seeds of a variety of test species were sown in standard soil in pots: Triticum aestivium (TRZAW), Oryza sativa (ORYSA), Avena fatua (AVEFA), Alopecurus myosuroides (ALOMY), Echinochloa crus-galli (ECHCG), Lolium perenne (LOLPE). After cultivation for one day (pre-emergence) under controlled conditions in a glasshouse (at 24/16° C., day/night; 14 hours light; 65% humidity), the plants were sprayed with an aqueous spray solution derived from the formulation of the technical active ingredient in acetone/water (50:50) solution containing 0.5% Tween 20 (polyoxyethelyene sorbitan monolaurate, CAS RN 9005-64-5). The test plants were then grown in a glasshouse under controlled conditions (at 24/16° C., day/night; 14 hours light; 65% humidity) and watered twice daily. After 13 days, the test was evaluated (5=total damage to plant; 0=no damage to plant).

Avena fatua (AVEFA) [2] = test: B1 pre-emergence herbicidal activity
Protocol: as §1

[3] = test system: Echinochloa crus-galli (ECHCG); test: B1 pre-emergence herbicidal activity
Protocol: as §1

Lolium perenne (LOLPE) [4] = test: B1 pre-emergence herbicidal activity
Protocol: as §1

Oryza sativa (ORYSA) [5] = test: B1 pre-emergence herbicidal activity
Protocol: as §1

[6] = test system: Triticum aestivium (TRZAW); test: B1 pre-emergence herbicidal activity
Protocol: as §1

[7] = test system: Alopecurus myosuroides (ALOMY); test: B2 post-emergence herbicidal activity
Protocol: (§2) Seeds of a variety of test species were sown in standard soil in pots: Triticum aestivium (TRZAW), Oryza sativa (ORYSA), Avena fatua (AVEFA), Alopecurus myosuroides (ALOMY), Echinochloa crus-galli (ECHCG), Lolium perenne (LOLPE). After 8 days cultivation (post-emergence) under controlled conditions in a glasshouse (at 24/16° C., day/night; 14 hours light; 65% humidity), the plants were sprayed with an aqueous spray solution derived from the formulation of the technical active ingredient in acetone/water (50:50) solution containing 0.5% Tween 20 (polyoxyethelyene sorbitan monolaurate, CAS RN 9005-64-5). The test plants were then grown in a glasshouse under controlled conditions (at 24/16° C., day/night; 14 hours light; 65% humidity) and watered twice daily. After 13 days, the test was evaluated (5=total damage to plant; 0=no damage to plant).

Avena fatua (AVEFA) [8] = test: B2 post-emergence herbicidal activity
Protocol: as §2

[9] = test system: Echinochloa crus-galli (ECHCG); test: B2 post-emergence herbicidal activity
Protocol: as §2

Lolium perenne (LOLPE) [10] = test: B2 post-emergence herbicidal activity
Protocol: as §2

Oryza sativa (ORYSA) [11] = test: B2 post-emergence herbicidal activity
Protocol: as §2

[12] = test system: Triticum aestivium (TRZAW); test: B2 post-emergence herbicidal activity
Protocol: as §2

| Compound | Control of ALOMY after pre-emergence application (damage score 0-5) ([1]; Rate 1000 g/ha) | Control of AVEFA after pre-emergence application (damage score 0-5) (Avena fatua (AVEFA) [2]; Rate 1000 g/ha) | Control of ECHCG after pre-emergence application (damage score 0-5) ([3]; Rate 1000 g/ha) | Control of LOLPE after pre-emergence application (damage score 0-5) (Lolium perenne (LOLPE) [4]; Rate 1000 g/ha) | Control of ORYSA after pre-emergence application (damage score 0-5) (Oryza sativa (ORYSA) [5]; Rate 1000 g/ha) | Control of TRZAW after pre-emergence application (damage score 0-5) ([6]; Rate 1000 g/ha) | Control of ALOMY after post-emergence application (damage score 0-5) ([7]; Rate 1000 g/ha) | Control of AVEFA after post-emergence application (damage score 0-5) (Avena fatua (AVEFA) [8]; Rate 1000 g/ha) | Control of ECHCG after post-emergence application (damage score 0-5) ([9]; Rate 1000 g/ha) | Control of LOLPE after post-emergence application (damage score 0-5) (Lolium perenne (LOLPE) [10]; Rate 1000 g/ha) | Control of ORYSA after post-emergence application (damage score 0-5) (Oryza sativa (ORYSA) [11]; Rate 1000 g/ha) | Control of TRZAW after post-emergence application (damage score 0-5) ([12]; Rate 1000 g/ha) | further results |
| --- | --- | --- | --- | --- | --- | --- | --- | --- | --- | --- | --- | --- | --- |
| Cc1nn(-c2cncc(F)c2)cc1N(C)C(=O)OC(C)(C)C [Compound A10] | 0 | 2 | 4 | 1 | 1 | 0 | 1 | 3 | 4 | 1 | 1 | 0 |  |
| CC(C)(C)OC(=O)Nc1cn(-c2cccnc2)nc1C(F)(F)F [Compound A7] |  |  |  |  |  |  |  |  |  |  |  |  | Control of ALOMY after pre-emergence application (damage score 0-5) ([1]; Rate 500 g/ha): 0; Control of AVEFA after pre-emergence application (damage score 0-5) (Avena fatua (AVEFA) [2]; Rate 500 g/ha): 0; Control of ECHCG after pre-emergence application (damage score 0-5) ([3]; Rate 500 g/ha): 2; Control of LOLPE after pre-emergence application (damage score 0-5) (Lolium perenne (LOLPE) [4]; Rate 500 g/ha): 0; Control of ORYSA after pre-emergence application (damage score 0-5) (Oryza sativa (ORYSA) [5]; Rate 500 g/ha): 1; Control of TRZAW after pre-emergence application (damage score 0-5) ([6]; Rate 500 g/ha): 0; Control of ALOMY after post-emergence application (damage score 0-5) ([7]; Rate 500 g/ha): 2; Control of AVEFA after post-emergence application (damage score 0-5) (Avena fatua (AVEFA) [8]; Rate 500 g/ha): 2; Control of ECHCG after post-emergence application (damage score 0-5) ([9]; Rate 500 g/ha): 4; Control of LOLPE after post-emergence application (damage score 0-5) (Lolium perenne (LOLPE) [10]; Rate 500 g/ha): 1; Control of ORYSA after post-emergence application (damage score 0-5) (Oryza sativa (ORYSA) [11]; Rate 500 g/ha): 1; Control of TRZAW after post-emergence application (damage score 0-5) ([12]; Rate 500 g/ha): 0 |
| CN(C(=O)OC(C)(C)C)c1cn(-c2cncnc2)nc1C(F)(F)F [Compound A6] | 0 | 3 | 5 | 1 | 2 | 0 | 3 | 1 | 5 | 1 | 5 | 1 |  |
| Cc1nn(-c2cncnc2)cc1N(C)C(=O)Nc1ccc(C#N)cc1 [Compound A52] | 0 | 0 | 0 | 0 | 0 | 0 | 0 | 0 | 0 | 0 | 0 | 0 |  |
| CCOC(=O)N(C)c1cn(-c2cncc(F)c2)nc1C(F)(F)F [Compound A47] | 0 | 0 | 1 | 0 | 0 | 0 | 1 | 2 | 4 | 0 | 0 | 1 |  |
| COC(=O)N(C)c1cn(-c2cncc(F)c2)nc1C(F)(F)F [Compound A27] | 0 | 0 | 2 | 0 | 0 | 0 | 0 | 3 | 4 | 2 | 1 | 1 |  |
| Cc1nn(-c2cncnc2)cc1N(C)C(=O)OC(C)(C)C [Compound A5, tert-butyl N-methyl-N-(3-methyl-1-pyrimidin-5-yl-pyrazol-4-yl)carbamate] | 1 | 4 | 5 | 1 | 2 | 4 | 4 | 0 | 5 | 2 | 5 | 2 |  |
| CN(C(=O)N(C)C(C)(C)C)c1cn(-c2cncnc2)nc1C(F)(F)F [Compound A51] | 0 | 0 | 1 | 0 | 1 | 0 | 1 | 2 | 2 | 1 | 0 | 2 |  |
| Cc1nn(-c2cncnc2)cc1N(C)C(=O)NC1CCCCC1 [Compound A44] | 0 | 1 | 1 | 1 | 1 | 1 | 1 | 3 | 1 | 2 | 0 | 0 |  |
| CN(C(=O)OC(C)(C)C)c1cc(-c2cncnc2)nn1C [Compound A14] | 1 | 3 | 3 | 0 | 0 | 1 | 1 | 4 | 4 | 3 | 0 | 1 |  |
| CN(C(=O)OC(C)(C)C)c1cn(-c2cncc(F)c2)nc1C(F)(F)F [Compound A48] | 1 | 0 | 3 | 1 | 1 | 1 | 1 | 3 | 4 | 2 | 1 | 1 |  |
